Experimental data reported in ChEMBL document CHEMBL1145467, “SME-2-producing Serratia marcescens isolate from Switzerland” (2007).
≈ marks a conversion by molar mass, not a printed value.

Test system: Serratia marcescens
Experiment: Antimicrobial activity against Serratia marcescens AW isolated from parotidectomy patient
Format: functional

SMILES	MIC [µg/mL]
C[C@@H](O)[C@H]1C(=O)N2C(C(=O)O)=C(S[C@@H]3CN[C@H](C(=O)Nc4cccc(C(=O)O)c4)C3)[C@H](C)[C@H]12 [ERTAPENEM]	4 (≈ 8.41 µM)
C[C@@H](O)[C@H]1C(=O)N2C(C(=O)O)=C(SCCNC=N)C[C@H]12 [IMIPENEM ANHYDROUS]	32 (≈ 107 µM)
C[C@@H](O)[C@H]1C(=O)N2C(C(=O)O)=C(S[C@@H]3CN[C@H](C(=O)N(C)C)C3)[C@H](C)[C@H]12 [MEROPENEM]	8 (≈ 20.9 µM)
